Reference: patent US10751285B1, “Synthesis of C resorcinarene based novel amphiphilic supramolecular macrocycle as nano-scale drug loading system” (priority 2019, dated 2020)

Test: Critical micelle concentration (CMC) by UV-visible spectrophotometer
Format: physicochemical
Details: in methanol; absorbance at 283 nm; 0.001-0.09 mM range
Description: CMC of the synthesized resorcinarene based amphiphilic supramolecular macrocycle was investigated in methanol using UV-visible spectrophotometer. Amphiphile methanolic solutions in 0.001-0.09 mM range were read on UV-visible spectrophotometer, giving characteristic absorbance at 283 nm.

- CMC: 0.04 mM
Structure (SMILES): CCCCCCCCCCCCCCCCOc1ccc(C2c3cc(c(O)cc3O)C(c3ccc(OCCCCCCCCCCCCCCCC)cc3)c3cc(c(O)cc3O)C(c3ccc(OCCCCCCCCCCCCCCCC)cc3)c3cc(c(O)cc3O)C(c3ccc(OCCCCCCCCCCCCCCCC)cc3)c3cc2c(O)cc3O)cc1 (stereo not shown) [ASRM]
